Some test systems named below: HOP-92; A549; OVCAR-5; SK-OV-3; SK-MEL-28; K562; EKVX; HCT-15; UO-31; HCT-116; MOLT-4; SF-268; SW-620; SN12C; SF-539; U-251; RXF 393; CCRF-CEM.
What all share (test): NCI-60 cell line screen, 48 h

Structures are written as SMILES.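 Step 1: Grow cells in 96-well plates. Step 2: Expose to compound for 48 hours at 5 concentrations. Step 3: Interpolate endpoints linearly; if unreached, use highest concentration. Here, GI50 denotes the concentration required for 50% inhibition of growth.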 Activity calls are given as the source filed them. Cut-off read from the data, not from the text of the source: active = GI50 up to about 1.1 µM and inactive = higher.

As for `Cc1ccc(S(=O)(=O)OC2=C/C(=N\c3onc(C)c3C)c3ccccc3C2=O)cc1`, the GI50 with HOP-92 was 18.8 µM (inactive); in the assay on A549, 51.1 µM (inactive); with OVCAR-5 it was 20.3 µM (inactive); in the assay with SK-OV-3, 28.7 µM (inactive); in the assay on SK-MEL-28 it was 44.3 µM (inactive); in the assay on K562, 4.41 µM (inactive). Also, the GI50 with EKVX was > 100 µM (inactive); in the assay with HCT-15, 29 µM; in the assay on UO-31 it was 17 µM (inactive); in the assay with HCT-116 it was 17.6 µM (inactive); in the assay with MOLT-4, 4.8 µM (inactive); with SF-268 it was 23.7 µM (inactive). In addition, the GI50 is 28.2 µM (inactive) with SW-620, 18.7 µM (inactive) in the assay on SN12C, 31.8 µM (inactive) in the assay on SF-539 and 4 µM (inactive) in the assay with U-251.

Consider `O=C1N[C@@H]2O[C@H](CNC(=O)c3cc(Br)c[nH]3)C[C@]2(O)N1.O=C1N[C@H]2O[C@H](CNC(=O)c3cc(Br)c[nH]3)C[C@@]2(O)N1`, for which the GI50 in the assay with HOP-92, with A549, in the assay on OVCAR-5, in the assay on SK-OV-3, in the assay on SK-MEL-28 and in the assay on K562 was > 100 µM (inactive) in each case. Moreover, the GI50 was > 100 µM (inactive) with EKVX; above 100 µM in the assay with HCT-15; > 100 µM (inactive) with UO-31; > 100 µM (inactive) in the assay on HCT-116; > 100 µM (inactive) in the assay with MOLT-4; > 100 µM (inactive) with SF-268. For the same molecule, the GI50 in the assay with SW-620, in the assay on SN12C, with SF-539 and in the assay on U-251 was > 100 µM (inactive) throughout.

With `CN1C(=S)C(c2ccccc2)Sc2ccccc21` (stereo not given), the GI50 with RXF 393 was 50.2 µM (inactive); in the assay with CCRF-CEM, 8.77 µM (inactive); with A549, 84.3 µM (inactive); in the assay on OVCAR-5, 82 µM (inactive); with SK-OV-3, 42.8 µM (inactive); in the assay with SK-MEL-28, > 100 µM (inactive). The GI50 in the assay with K562 was 20.7 µM (inactive); in the assay on EKVX, 14 µM (inactive); in the assay with HCT-15, 52.1 µM; in the assay on UO-31, 35.6 µM (inactive); in the assay on HCT-116 it was 38.8 µM (inactive); in the assay on MOLT-4, 7.29 µM (inactive). The GI50 in the assay on SF-268, with SN12C and in the assay with U-251 was > 100 µM (inactive) in each case.

On to `O=C(O)[C@@]1(Cc2ccc(O)cc2)C[C@@H]2Cc3ccccc3N2N1`, for which the GI50 in the assay with HOP-92, in the assay with CCRF-CEM, in the assay on A549, in the assay with OVCAR-5, in the assay on SK-OV-3 and in the assay with SK-MEL-28 was > 100 µM (inactive) in each case. Also, the GI50 was > 100 µM (inactive) in the assay on EKVX; above 100 µM in the assay on HCT-15; > 100 µM (inactive) in the assay on UO-31; > 100 µM (inactive) in the assay on HCT-116; > 100 µM (inactive) with MOLT-4; > 100 µM (inactive) in the assay with SF-268. Moreover, the GI50 in the assay on SW-620, with SN12C, with SF-539 and in the assay on U-251 was > 100 µM (inactive) each time.

In the case of `O=C(O)c1cncc(C(=O)O)c1`, the GI50 in the assay with RXF 393, in the assay with CCRF-CEM, in the assay with A549, in the assay with OVCAR-5, in the assay on SK-OV-3 and in the assay with SK-MEL-28 was > 100 µM (inactive) in each case. Moreover, the GI50 in the assay on K562 was > 100 µM (inactive); in the assay with EKVX it was > 100 µM (inactive); in the assay on HCT-15, above 100 µM; in the assay on UO-31 it was > 100 µM (inactive); with HCT-116, > 100 µM (inactive); with MOLT-4, > 100 µM (inactive). The GI50 in the assay on SF-268, in the assay on SW-620, in the assay with SN12C, with SF-539 and in the assay with U-251 was > 100 µM (inactive) throughout.

The values are drawn from ChEMBL document CHEMBL1201862, “PubChem BioAssay data set” (2004).
